# Source: the NIST ThermoML archive (doi:10.1021/je0341413)
# ± gives the expanded uncertainty stated by the source.
# Assay: xn = mol fraction of the nth substance listed
# Conditions: 101.3 kPa, Liquid
structure (smiles),measurement,setting,value
CC(C)O [propan-2-ol] + CCOC(=O)OCC,viscosity,"293.15 K, x2 = 0",2.386 ± 0.075 mPa·s
same,viscosity,"298.15 K, x2 = 0",2.098 ± 0.067 mPa·s
same,viscosity,"303.15 K, x2 = 0",1.763 ± 0.056 mPa·s
same,viscosity,"313.15 K, x2 = 0",1.325 ± 0.042 mPa·s
CCO [ethanol] + CCOC(=O)OCC,viscosity,"293.15 K, x2 = 0",1.194 ± 0.037 mPa·s
same,viscosity,"298.15 K, x2 = 0",1.105 ± 0.035 mPa·s
same,viscosity,"303.15 K, x2 = 0",0.972 ± 0.031 mPa·s
same,viscosity,"313.15 K, x2 = 0",0.826 ± 0.026 mPa·s
CCCCO [butan-1-ol] + CCOC(=O)OCC,viscosity,"293.15 K, x2 = 0",2.941 ± 0.092 mPa·s
same,viscosity,"298.15 K, x2 = 0",2.62 ± 0.083 mPa·s
same,viscosity,"303.15 K, x2 = 0",2.255 ± 0.071 mPa·s
same,viscosity,"313.15 K, x2 = 0",1.754 ± 0.056 mPa·s
CCOC(=O)OCC [diethyl carbonate] + CCC(C)O,viscosity,"293.15 K, x1 = 0.0512",2.892 ± 0.18 mPa·s
same,viscosity,"293.15 K, x1 = 0.1031",2.341 ± 0.15 mPa·s
same,viscosity,"293.15 K, x1 = 0.2021",1.652 ± 0.1 mPa·s
same,viscosity,"293.15 K, x1 = 0.2997",1.289 ± 0.081 mPa·s
same,viscosity,"293.15 K, x1 = 0.4023",1.092 ± 0.069 mPa·s
same,viscosity,"293.15 K, x1 = 0.5115",0.979 ± 0.062 mPa·s
same,viscosity,"293.15 K, x1 = 0.607",0.91 ± 0.057 mPa·s
same,viscosity,"293.15 K, x1 = 0.707",0.861 ± 0.054 mPa·s
same,viscosity,"293.15 K, x1 = 0.8038",0.825 ± 0.052 mPa·s
same,viscosity,"293.15 K, x1 = 0.9089",0.804 ± 0.051 mPa·s
same,viscosity,"293.15 K, x1 = 0.9524",0.803 ± 0.051 mPa·s
same,viscosity,"293.15 K, x1 = 1",0.795 ± 0.05 mPa·s
same,viscosity,"298.15 K, x1 = 0.0509",2.485 ± 0.16 mPa·s
same,viscosity,"298.15 K, x1 = 0.101",2.001 ± 0.12 mPa·s
same,viscosity,"298.15 K, x1 = 0.202",1.379 ± 0.086 mPa·s
same,viscosity,"298.15 K, x1 = 0.3002",1.071 ± 0.067 mPa·s
same,viscosity,"298.15 K, x1 = 0.404",0.937 ± 0.059 mPa·s
same,viscosity,"298.15 K, x1 = 0.5003",0.888 ± 0.056 mPa·s
same,viscosity,"298.15 K, x1 = 0.6008",0.858 ± 0.054 mPa·s
same,viscosity,"298.15 K, x1 = 0.6963",0.813 ± 0.051 mPa·s
same,viscosity,"298.15 K, x1 = 0.7987",0.752 ± 0.047 mPa·s
same,viscosity,"298.15 K, x1 = 0.8999",0.709 ± 0.045 mPa·s
same,viscosity,"298.15 K, x1 = 0.9466",0.712 ± 0.045 mPa·s
same,viscosity,"298.15 K, x1 = 1",0.749 ± 0.047 mPa·s
same,viscosity,"303.15 K, x1 = 0.0517",2.023 ± 0.13 mPa·s
same,viscosity,"303.15 K, x1 = 0.1132",1.623 ± 0.1 mPa·s
same,viscosity,"303.15 K, x1 = 0.2267",1.211 ± 0.076 mPa·s
same,viscosity,"303.15 K, x1 = 0.3316",1.021 ± 0.064 mPa·s
same,viscosity,"303.15 K, x1 = 0.4467",0.89 ± 0.056 mPa·s
same,viscosity,"303.15 K, x1 = 0.5422",0.809 ± 0.051 mPa·s
same,viscosity,"303.15 K, x1 = 0.6426",0.739 ± 0.047 mPa·s
same,viscosity,"303.15 K, x1 = 0.7416",0.698 ± 0.044 mPa·s
same,viscosity,"303.15 K, x1 = 0.8281",0.684 ± 0.043 mPa·s
same,viscosity,"303.15 K, x1 = 0.9196",0.691 ± 0.044 mPa·s
same,viscosity,"303.15 K, x1 = 0.9494",0.697 ± 0.044 mPa·s
same,viscosity,"303.15 K, x1 = 1",0.699 ± 0.044 mPa·s
same,viscosity,"313.15 K, x1 = 0.0511",1.503 ± 0.094 mPa·s
same,viscosity,"313.15 K, x1 = 0.1026",1.28 ± 0.08 mPa·s
same,viscosity,"313.15 K, x1 = 0.1988",0.996 ± 0.063 mPa·s
same,viscosity,"313.15 K, x1 = 0.2955",0.83 ± 0.052 mPa·s
same,viscosity,"313.15 K, x1 = 0.4041",0.738 ± 0.047 mPa·s
same,viscosity,"313.15 K, x1 = 0.5084",0.69 ± 0.043 mPa·s
same,viscosity,"313.15 K, x1 = 0.5983",0.662 ± 0.042 mPa·s
same,viscosity,"313.15 K, x1 = 0.6988",0.636 ± 0.04 mPa·s
same,viscosity,"313.15 K, x1 = 0.8034",0.61 ± 0.038 mPa·s
same,viscosity,"313.15 K, x1 = 0.9022",0.601 ± 0.038 mPa·s
same,viscosity,"313.15 K, x1 = 0.9523",0.606 ± 0.038 mPa·s
same,viscosity,"313.15 K, x1 = 1",0.623 ± 0.039 mPa·s
CCOC(=O)OCC [diethyl carbonate] + CO,viscosity,"293.15 K, x1 = 0.0513",0.592 ± 0.019 mPa·s
same,viscosity,"293.15 K, x1 = 0.1002",0.596 ± 0.019 mPa·s
same,viscosity,"293.15 K, x1 = 0.1972",0.608 ± 0.019 mPa·s
same,viscosity,"293.15 K, x1 = 0.2839",0.623 ± 0.02 mPa·s
same,viscosity,"293.15 K, x1 = 0.4038",0.642 ± 0.02 mPa·s
same,viscosity,"293.15 K, x1 = 0.5",0.657 ± 0.021 mPa·s
same,viscosity,"293.15 K, x1 = 0.5933",0.675 ± 0.021 mPa·s
same,viscosity,"293.15 K, x1 = 0.6417",0.685 ± 0.022 mPa·s
same,viscosity,"293.15 K, x1 = 0.7996",0.722 ± 0.023 mPa·s
same,viscosity,"293.15 K, x1 = 0.9014",0.75 ± 0.024 mPa·s
same,viscosity,"293.15 K, x1 = 0.9709",0.782 ± 0.025 mPa·s
same,viscosity,"293.15 K, x1 = 1",0.795 ± 0.025 mPa·s
same,viscosity,"298.15 K, x1 = 0.0496",0.556 ± 0.018 mPa·s
same,viscosity,"298.15 K, x1 = 0.0996",0.558 ± 0.018 mPa·s
same,viscosity,"298.15 K, x1 = 0.1985",0.574 ± 0.018 mPa·s
same,viscosity,"298.15 K, x1 = 0.2944",0.588 ± 0.019 mPa·s
same,viscosity,"298.15 K, x1 = 0.4014",0.603 ± 0.019 mPa·s
same,viscosity,"298.15 K, x1 = 0.4975",0.615 ± 0.019 mPa·s
same,viscosity,"298.15 K, x1 = 0.6068",0.637 ± 0.02 mPa·s
same,viscosity,"298.15 K, x1 = 0.7087",0.658 ± 0.021 mPa·s
same,viscosity,"298.15 K, x1 = 0.8365",0.688 ± 0.022 mPa·s
same,viscosity,"298.15 K, x1 = 0.9091",0.71 ± 0.022 mPa·s
same,viscosity,"298.15 K, x1 = 0.9598",0.731 ± 0.023 mPa·s
same,viscosity,"298.15 K, x1 = 1",0.749 ± 0.024 mPa·s
same,viscosity,"303.15 K, x1 = 0.049",0.518 ± 0.016 mPa·s
same,viscosity,"303.15 K, x1 = 0.0966",0.524 ± 0.017 mPa·s
same,viscosity,"303.15 K, x1 = 0.1958",0.537 ± 0.017 mPa·s
same,viscosity,"303.15 K, x1 = 0.2824",0.548 ± 0.017 mPa·s
same,viscosity,"303.15 K, x1 = 0.3914",0.563 ± 0.018 mPa·s
same,viscosity,"303.15 K, x1 = 0.4936",0.578 ± 0.018 mPa·s
same,viscosity,"303.15 K, x1 = 0.581",0.592 ± 0.019 mPa·s
same,viscosity,"303.15 K, x1 = 0.6945",0.612 ± 0.019 mPa·s
same,viscosity,"303.15 K, x1 = 0.7349",0.62 ± 0.02 mPa·s
same,viscosity,"303.15 K, x1 = 0.8512",0.645 ± 0.02 mPa·s
same,viscosity,"303.15 K, x1 = 0.9214",0.663 ± 0.021 mPa·s
same,viscosity,"303.15 K, x1 = 1",0.699 ± 0.022 mPa·s
same,viscosity,"313.15 K, x1 = 0.0509",0.456 ± 0.015 mPa·s
same,viscosity,"313.15 K, x1 = 0.0999",0.46 ± 0.015 mPa·s
same,viscosity,"313.15 K, x1 = 0.2009",0.475 ± 0.015 mPa·s
same,viscosity,"313.15 K, x1 = 0.2981",0.49 ± 0.016 mPa·s
same,viscosity,"313.15 K, x1 = 0.4009",0.505 ± 0.016 mPa·s
same,viscosity,"313.15 K, x1 = 0.5056",0.524 ± 0.017 mPa·s
same,viscosity,"313.15 K, x1 = 0.6062",0.543 ± 0.017 mPa·s
same,viscosity,"313.15 K, x1 = 0.7033",0.561 ± 0.018 mPa·s
same,viscosity,"313.15 K, x1 = 0.8055",0.584 ± 0.018 mPa·s
same,viscosity,"313.15 K, x1 = 0.902",0.603 ± 0.019 mPa·s
same,viscosity,"313.15 K, x1 = 0.9448",0.61 ± 0.019 mPa·s
same,viscosity,"313.15 K, x1 = 1",0.623 ± 0.02 mPa·s
